Values quoted from earlier work as cited in patent US12102751B2, “Positive pressure inhaler for delivery of inhalable medication and methods for use” (priority 2019, dated 2024).

Columns and labels:
[1] = after vaping

## C=C(C)[C@@H]1CCC(C)=C[C@H]1c1c(O)cc(CCCCC)cc1O [CBD, Cannabidiol]
[1]
  time after which plasma concentration falls: 22 min
  time at which plasma concentration reaches maximum strength: 6 min

## CCCCCc1cc(O)c2c(c1)OC(C)(C)[C@@H]1CCC(C)=C[C@@H]21 [THC, tetrahydrocannabinol]
Most organic solvents, specifically lipids and alcohols
  solubility in most organic solvents: good
water
  solubility in water: very low
[1]
  time after which plasma concentration falls: 22 min
  time at which plasma concentration reaches maximum strength: 6 min
